Consider 30 molecules from PubChem BioAssay (NCI).

What all share (assay): growth of human tumour cells (NCI), 48 h
For experiment [1], the system named is MDA-MB-231 breast.
Experiment [2] concerns PC-3 prostate.
For experiment [3], the system named is BT-549 breast.

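96-well plates; 48 h exposure; 5 concentrations. Endpoints by linear interpolation between flanking doses. Not reached: highest tested concentration assigned. GI50 is the concentration that inhibits growth by half. TGI marks complete inhibition of growth.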

As for `Cc1cc2c(cc1Cl)SC1=NN(C)S(=O)N1S2(=O)=O` (stereo unspecified), the GI50 in experiment [1], in experiment [2] and in experiment [3] was over 100 µM each time. Moreover, the TGI in experiment [1], in experiment [2] and in experiment [3] was over 100 µM throughout.
Turning to `N#CSC1CCCCNC1=O` (stereo unspecified), the TGI came to 33 µM in experiment [1], 34 µM in experiment [2] and 21.5 µM in experiment [3].
Take `COc1ccc(-c2nc(-c3nc4ccc(Cl)cc4[nH]3)c3ccccn23)cc1`: the GI50 in experiment [1] was 2.77 µM; in experiment [2], 2.13 µM; in experiment [3], 2.74 µM. Also, the TGI in experiment [1] came out at 7.75 µM; in experiment [2] it was 5.63 µM; in experiment [3] it was 6.63 µM.
`COC(=O)Nc1nc2ccc(Oc3ccc(NC(=O)Nc4cc(C(F)(F)F)ccc4F)cc3)cc2s1`: the GI50 was 9.05 µM in experiment [1], 11.5 µM in experiment [2] and over 25 µM in experiment [3]. Besides, the TGI in experiment [1], in experiment [2] and in experiment [3] was over 25 µM each time.
`Nc1nc(N(Cc2ccccc2)c2ccccc2)c2cn[nH]c2n1`: the GI50 in experiment [1] is 6.41 µM; in experiment [2], 4.56 µM; in experiment [3], 3.95 µM. In addition, the TGI in experiment [1], in experiment [2] and in experiment [3] was over 100 µM throughout.
`Cc1cc(-c2cnn3c(NCC4CC(C)(O)C4)cc(Oc4cccnc4)nc23)ccc1C(=O)NC1CC1` (stereo unspecified): in experiment [1], the GI50 was 3.39 µM and the TGI was over 100 µM. Besides, in experiment [3], the GI50 was over 100 µM and the TGI was over 100 µM.
Turning to `Nc1nc2c(nnn2C2CC(O)C(CO)O2)c(=O)[nH]1` (stereo unspecified), the GI50 is 5.41 µM in experiment [1], 2.55 µM in experiment [2] and 4.14 µM in experiment [3]. Moreover, the TGI in experiment [1] is over 100 µM; in experiment [2] it was over 100 µM; in experiment [3], over 59.9 µM.
For `CC1(C)OC2=C(CC1Br)C(=O)C(=O)c1ccccc12` (stereo unspecified), the results for the GI50 in experiment [1], in experiment [2] and in experiment [3] were 2.35 µM, 2.13 µM and 1.85 µM, respectively. Further, the TGI stood at 6.42 µM in experiment [1], 4.95 µM in experiment [2] and 3.34 µM in experiment [3].
As for `N#CC(C#N)=C1Nc2ccccc2S1`, in experiment [1], the GI50 is 43.4 µM and the TGI is over 100 µM. Moreover, in experiment [2], the GI50 is 40.1 µM and the TGI is over 100 µM.
Take `O=C(CC1C(=O)NN(c2ccc(Br)cc2)C1=O)c1cc(O)ccc1O` (stereo unspecified): the GI50 was 8.44 µM in experiment [1], 24.1 µM in experiment [2] and 13.9 µM in experiment [3]. Also, the TGI in experiment [1] was 22.4 µM; in experiment [2] it was over 50 µM; in experiment [3], over 50 µM.
For the molecule `COc1ccc(-c2onc(N)c2-c2cc(OC)c3c(c2)OCO3)cc1`, the GI50 was 3.4 µM in experiment [1], 4.69 µM in experiment [2] and 2.64 µM in experiment [3]. For the same molecule, the TGI was 65.8 µM in experiment [1], over 100 µM in experiment [2] and over 100 µM in experiment [3].
With `O=C(O)CCNC1CCCCC1`, the GI50 in experiment [1], in experiment [2] and in experiment [3] was over 100 µM each time. Further, the TGI in experiment [1], in experiment [2] and in experiment [3] was over 100 µM in each case.
In the case of `CC[C@@]1(c2ccccc2)C2=C(CC(C)(C)CC2=O)Nc2[nH]ncc21`, the GI50 in experiment [1], in experiment [2] and in experiment [3] was over 100 µM each time. For the same molecule, the TGI in experiment [1], in experiment [2] and in experiment [3] was over 100 µM throughout.
As for `CCOC1Oc2ccc(C)cc2C(=O)/C1=C\Nc1ccc(C(N)=O)cc1` (stereo unspecified), the GI50 in experiment [1] was 16.7 µM; in experiment [2], 32.9 µM; in experiment [3], 15.5 µM. Besides, the values for the TGI in experiment [1], in experiment [2] and in experiment [3] were 36 µM, over 100 µM and 62.9 µM, respectively.
Regarding `O=C(CCc1nnc2sc(-c3ccc(Cl)cc3Cl)nn12)c1nc2ccccc2[nH]1`, the GI50 in experiment [1] was 0.746 µM; in experiment [2], 0.865 µM; in experiment [3], 2.14 µM. The TGI is 2.21 µM in experiment [1], 3.62 µM in experiment [2] and 4.99 µM in experiment [3].
As to `O=C(Nc1ccc(-c2nc(N3CCOCC3)c3cccn3n2)cc1)Nc1cccnc1`, in experiment [2], the GI50 was 0.0512 µM and the TGI amounted to 2.27 µM. Moreover, in experiment [3], the GI50 was 0.145 µM and the TGI was 0.951 µM.
On to `O=C1CCC(N2C(=O)c3ccccc3C2=O)C(=O)N1CO` (stereo unspecified), for which the GI50 in experiment [1] is over 100 µM; in experiment [2] it was 47.2 µM; in experiment [3] it was 52.6 µM. Moreover, the TGI in experiment [1], in experiment [2] and in experiment [3] was over 100 µM in each case.
As for `NC(=O)NS(=O)(=O)c1ccc(N2N=C(C(F)(F)F)CC2c2cc(C(F)(F)F)cc(C(F)(F)F)c2)cc1` (stereo unspecified), the GI50 in experiment [1] was 10.2 µM; in experiment [2], 2.35 µM; in experiment [3], 4.28 µM. Further, the TGI in experiment [1] turned out to be 22.7 µM; in experiment [2], 12.2 µM; in experiment [3], 16.5 µM.
As for `O=c1cc(-c2ccccc2)oc2cc(OC/C(=N/O)c3ccccc3)ccc12`, the figures for the GI50 in experiment [1], in experiment [2] and in experiment [3] were 6.98 µM, 9.4 µM and 12.4 µM, respectively. In addition, the TGI was 23.9 µM in experiment [1], 38.4 µM in experiment [2] and 27.8 µM in experiment [3].
Regarding `CCCCCCCC[C@@H](O)CC(=O)N[C@@H](CC(N)=O)C(=O)N[C@@H](CCC(N)=O)C(=O)N[C@@H](CC(=O)c1cc(C)cc(O)c1C(=O)c1c(O)cccc1O)CC(C)C`, the values for the GI50 in experiment [1], in experiment [2] and in experiment [3] were 0.678 µM, 0.31 µM and 0.296 µM, respectively. Moreover, the TGI in experiment [1] worked out at 68.3 µM; in experiment [2], 47.9 µM; in experiment [3], 2.25 µM.
On to `C[N+]1=C(/C=C/c2ccc(O)c3ncccc23)C(C)(C)c2ccccc21`, for which the GI50 in experiment [1] is 2.75 µM; in experiment [2] it was 2.79 µM; in experiment [3], 2.64 µM. In addition, the figures for the TGI in experiment [1], in experiment [2] and in experiment [3] were 11 µM, 22 µM and 10.3 µM, respectively.
Turning to `COc1cc[nH]c1/C=C1\C(=O)Nc2ccc(F)c(C#CC3(O)CCNCC3)c21`, the GI50 was 0.169 µM in experiment [1], 0.181 µM in experiment [2] and 0.318 µM in experiment [3]. Besides, the results for the TGI in experiment [1], in experiment [2] and in experiment [3] were 1 µM, 1.95 µM and 0.696 µM, respectively.
`Cc1ccc(-c2nc3nc(-c4ccccc4)nc(N4CCCNCC4)c3o2)cc1`: the GI50 in experiment [1] is 1.81 µM; in experiment [2], 1.69 µM; in experiment [3] it was 1.63 µM. In addition, the values for the TGI in experiment [1], in experiment [2] and in experiment [3] were 3.32 µM, 3.17 µM and 3.19 µM, respectively.
As for `CC/C=C\C[C@H](F)C/C=C1/C(=O)C=C[C@@H]1C/C=C\CCCC(=O)O`, the GI50 in experiment [1] was 12.7 µM; in experiment [2], 6.09 µM; in experiment [3], 6.07 µM. In addition, the figures for the TGI in experiment [1], in experiment [2] and in experiment [3] were over 32.5 µM, 15.7 µM and 12.5 µM, respectively.
Take `COc1cc2cc(Oc3ccc(NC(=O)Nc4ccc(Cl)c(C(F)(F)F)c4)cc3)c(C)nc2cc1OCCN1CCOCC1`: the GI50 was 2 µM in experiment [1], 1.36 µM in experiment [2] and 2.63 µM in experiment [3]. For the same molecule, the TGI is 5.07 µM in experiment [1], 6 µM in experiment [2] and 9.33 µM in experiment [3].
As to `O=S(=O)(NC1=NCCN1C(=S)SN1CCn2c1nsc2=S)c1cccc(Cl)c1`, the results for the GI50 in experiment [1], in experiment [2] and in experiment [3] were 15.3 µM, 15.4 µM and 22.3 µM, respectively. Further, the TGI in experiment [1] was determined as 50.7 µM; in experiment [2] it was 47.2 µM; in experiment [3] it was 68.4 µM.
On to `COc1ccc2c(c1)C(=O)c1c-2n(CCCn2ccnc2)c(=O)c2cc([N+](=O)[O-])ccc12`, for which the GI50 in experiment [1] is 2.59 µM; in experiment [2], 0.0168 µM; in experiment [3] it was under 0.0134 µM. Besides, the TGI is over 100 µM in experiment [1], over 100 µM in experiment [2] and 0.744 µM in experiment [3].
With `Nc1nccc(-c2c(-c3ccc(F)cc3)ncn2C2CCC(O)CC2)n1` (stereo unspecified), the GI50 is 14.5 µM in experiment [1], 13.3 µM in experiment [2] and 11.7 µM in experiment [3]. Besides, the TGI in experiment [1], in experiment [2] and in experiment [3] was over 25 µM in each case.
For the molecule `Cc1ccc2c(c1)Sc1c(ccc3ccccc13)N2`, the values for the GI50 in experiment [1], in experiment [2] and in experiment [3] were 42.1 µM, 11.5 µM and 28.5 µM, respectively. Moreover, the TGI in experiment [1], in experiment [2] and in experiment [3] was over 100 µM each time.
Turning to `O=C(O)/C=C(\c1nc2ccc([N+](=O)[O-])cc2[nH]1)c1cc(Cl)ccc1O`, the values for the GI50 in experiment [1], in experiment [2] and in experiment [3] were 2.11 µM, 2.25 µM and 2.3 µM, respectively. In addition, the TGI in experiment [1] is 9.25 µM; in experiment [2] it was over 100 µM; in experiment [3] it was 7.25 µM.
